In US20250332185A1, “Use of a New Therapeutic Combination to Treat Chronic Venous Insufficiency” (KÉRI PHARMA HUNGARY KFT., priority 2021, published 2025):
Read-outs that look alike come from different tables or passages of the source.

What was measured:
[1] = test system: fasting homocysteine levels in healthy young women; details: healthy young women with normal homocysteine; folic acid 400 micrograms/day, vitamin B6 2 mg/day; daily for four weeks; cited from earlier work
[2] = test system: patients with venous circulatory disorders, CEAP stage 2 and CEAP stage 3; assay: Observation test 1: CIVIQ-20 quality-of-life score after 12 weeks of therapy; type: in vivo, human; details: for CIVIQ change (score): Visit 1 score - Visit 2 score (negative = improvement), 12 weeks; for CIVIQ (score), Visit 2: after 12 weeks of therapy; for CIVIQ (score), Visit 2 / CIVIQ (score), Visit 1: mean ± SD; for CIVIQ (score), Visit 1: baseline before treatment
Experimental: The study analysed data from a total of 90 people retrospectively.
The analysis was based on consecutive patient data from outpatients who met the inclusion criteria. All patients had venous circulatory disorders, with severity of disease corresponding to CEAP stage 2 and CEAP stage 3. The male:female ratio in the population analysed was 1:2
In total, data from four different patient groups were examined: • Group 1: patients taking 1000 mg of diosmin daily (n=45)· • 30 subjects had homocysteine levels below the risk threshold (<12.5 μmol/L normal homocysteinemia group)· • 15 subjects had homocysteine levels above the risk threshold (>12.5 μmol/L hyperhomocysteinemia group) • Group 2: patients taking a daily combination of 1000 mg diosmin+6 mg folic acid+20 mg vitamin B6 (diosmin plus) (45 patients)· • 30 subjects had homocysteine levels below the risk threshold (<12.5 μmol/L normal homocysteinemia group)· • 15 subjects had homocysteine levels above the risk threshold (>12.5 μmol/L hyperhomocysteinemia group)
The observation period was 12 weeks, during which time patients took the prescribed medication continuously. Before starting the medication treatment, a physical examination (to determine the CEAP stage of chronic venous insufficiency) and homocysteine level determination were performed and a CIVIQ-20 questionnaire was filled out. At the end of the 12-week follow-up period, the tests were repeated. For continuous variables, normality testing was performed. Variables with a normal distribution (age, CIVIQ score at visits 1 and 2) were characterised by the mean+SD, while variables with a non-normal distribution (homocysteine level at visits 1 and 2) were characterised by the median (25; 75 percentile). Differences in the values of variables with normal distribution by subgroup was tested by t test, and difference in the values of variables with non-normal distribution by subgroup was tested by chi-squared test.
(§1) The factors determining the increase in CIVIQ score were analysed using simple and complex linear regression. In the composite model, age and gender were included as significant regressors. […] The fit of the final composite linear model was characterised using the Ramsey RESET test and the Breusch-Pagan/Cook-Weisberg test. Model fit is indicated by a value of p>0.05. The composite model was also stratified according to baseline homocysteine level (normal vs. low), to investigate the interaction between baseline homocysteine level and the therapy used.

homocysteine level [3] = assay: Observation test 2: homocysteine level determination; type: in vivo, human; details: median (25; 75 percentile); for homocysteine, Visit 2: after 12 weeks of therapy; for homocysteine, Visit 1: baseline before treatment, CEAP 6
Experimental: Data from a total of 60 people were analysed retrospectively. Patients attending outpatient care consecutively who met the inclusion criteria were included in the retrospective analysis. Patients all had venous circulatory disorders with a severity of disease corresponding to CEAP stage 6. The male:female ratio in the analysed population was 1:2. The data of a total of four different patient groups were analysed as follows. • Group 1: patients taking 1000 mg of diosmin daily (n=30) • 15 patients had homocysteine levels below the risk threshold (<12.5 μmol/L, normal homocysteinemia group). • 15 patients had homocysteine levels above the risk threshold (>12.5 μmol/L hyperhomocysteinemia group) • Group 2: patients taking a daily combination of 1000 mg diosmin+3 mg folic acid+20 mg vitamin B6 (diosmin plus) (30 patients) • 15 patients had homocysteine levels below the risk threshold (<12.5 μmol/L normal homocysteinemia group). • 15 patients had homocysteine levels above the risk threshold (>12.5 μmol/L hyperhomocysteinemia group) • Group 3: patients taking a combination of 3 mg folic acid+20 mg vitamin B6 (diosmin plus) daily (30 patients) • 15 patients had homocysteine levels below the risk threshold (<12.5 μmol/L normal homocysteinemia group). • 15 patients had homocysteine levels above the risk threshold (>12.5 μmol/L hyperhomocysteinemia group) The observation period was 12 weeks, during which time patients took the prescribed medication continuously. Before starting the medication treatment, a physical examination (to determine the CEAP stage of chronic venous insufficiency) and homocysteine level determination were performed. The area of the leg ulcer developed based on the venous circulatory disorder was also determined. At the end of the 12-week observation period, the tests were repeated. For continuous variables, normality tests were performed. Variables with a normal distribution (age) were characterised by the mean+SD, variables with a non-normal distribution (homocysteine level at visits 1 and 2, leg ulcer area at visits 1 and 2) were characterised by the median (25; 75 percentile). For comparisons between two subgroups, the difference in the values of variables with normal distribution by subgroup was tested by t test, and the difference in the values of variables with non-normal distribution by subgroup was tested by chi-squared test.

homocysteine level [4] = assay: Observation test 1: homocysteine level determination; type: in vivo, human; details: median (25; 75 percentile); for homocysteine, Visit 2: after 12 weeks of therapy; for homocysteine, Visit 1: baseline before treatment, CEAP 2-3
Experimental: The analysis was based on consecutive patient data from outpatients who met the inclusion criteria. All patients had venous circulatory disorders, with severity of disease corresponding to CEAP stage 2 and CEAP stage 3. The male:female ratio in the population analysed was 1:2 In total, data from four different patient groups were examined: • Group 1: patients taking 1000 mg of diosmin daily (n=45)· • 30 subjects had homocysteine levels below the risk threshold (<12.5 μmol/L normal homocysteinemia group)· • 15 subjects had homocysteine levels above the risk threshold (>12.5 μmol/L hyperhomocysteinemia group) • Group 2: patients taking a daily combination of 1000 mg diosmin+6 mg folic acid+20 mg vitamin B6 (diosmin plus) (45 patients)· • 30 subjects had homocysteine levels below the risk threshold (<12.5 μmol/L normal homocysteinemia group)· • 15 subjects had homocysteine levels above the risk threshold (>12.5 μmol/L hyperhomocysteinemia group) The observation period was 12 weeks, during which time patients took the prescribed medication continuously. Before starting the medication treatment, a physical examination (to determine the CEAP stage of chronic venous insufficiency) and homocysteine level determination were performed and a CIVIQ-20 questionnaire was filled out. At the end of the 12-week follow-up period, the tests were repeated. For continuous variables, normality testing was performed. Variables with a normal distribution (age, CIVIQ score at visits 1 and 2) were characterised by the mean+SD, while variables with a non-normal distribution (homocysteine level at visits 1 and 2) were characterised by the median (25; 75 percentile). Differences in the values of variables with normal distribution by subgroup was tested by t test, and difference in the values of variables with non-normal distribution by subgroup was tested by chi-squared test.

[5] = test system: patients with venous circulatory disorders, CEAP stage 6 (leg ulcer); assay: Observation test 2: area of leg ulcer after 12 weeks of therapy; type: in vivo, human; details: median (25; 75 percentile); for change in ulcer size: 1st visit - 2nd visit (positive = reduction), 12 weeks; for ulcer size, Visit 2: after 12 weeks of therapy; for ulcer size, Visit 1: baseline before treatment
Experimental: Data from a total of 60 people were analysed retrospectively. Patients attending outpatient care consecutively who met the inclusion criteria were included in the retrospective analysis. Patients all had venous circulatory disorders with a severity of disease corresponding to CEAP stage 6. The male:female ratio in the analysed population was 1:2. The data of a total of four different patient groups were analysed as follows. • Group 1: patients taking 1000 mg of diosmin daily (n=30) • 15 patients had homocysteine levels below the risk threshold (<12.5 μmol/L, normal homocysteinemia group). • 15 patients had homocysteine levels above the risk threshold (>12.5 μmol/L hyperhomocysteinemia group) • Group 2: patients taking a daily combination of 1000 mg diosmin+3 mg folic acid+20 mg vitamin B6 (diosmin plus) (30 patients) • 15 patients had homocysteine levels below the risk threshold (<12.5 μmol/L normal homocysteinemia group). • 15 patients had homocysteine levels above the risk threshold (>12.5 μmol/L hyperhomocysteinemia group) • Group 3: patients taking a combination of 3 mg folic acid+20 mg vitamin B6 (diosmin plus) daily (30 patients) • 15 patients had homocysteine levels below the risk threshold (<12.5 μmol/L normal homocysteinemia group). • 15 patients had homocysteine levels above the risk threshold (>12.5 μmol/L hyperhomocysteinemia group)
The observation period was 12 weeks, during which time patients took the prescribed medication continuously. Before starting the medication treatment, a physical examination (to determine the CEAP stage of chronic venous insufficiency) and homocysteine level determination were performed. The area of the leg ulcer developed based on the venous circulatory disorder was also determined.
At the end of the 12-week observation period, the tests were repeated. For continuous variables, normality tests were performed. Variables with a normal distribution (age) were characterised by the mean+SD, variables with a non-normal distribution (homocysteine level at visits 1 and 2, leg ulcer area at visits 1 and 2) were characterised by the median (25; 75 percentile). For comparisons between two subgroups, the difference in the values of variables with normal distribution by subgroup was tested by t test, and the difference in the values of variables with non-normal distribution by subgroup was tested by chi-squared test.
as §1, with “effectiveness of the therapy was characterised by the change in the area of the leg ulcer. Factors” for “factors”, “change” for “increase”, “ulcer size” for “CIVIQ score”, “were” for “were included as”

[6] = test system: systolic blood pressure in untreated hypertensive patients; details: interval in brackets, cited from earlier work
[7] = test system: homocysteine levels in untreated hypertensive patients; details: cited from earlier work; for homocysteine levels increased by: end of 4.5-year treatment
[8] = test system: patients with venous ulcers; details: cited from earlier work
[9] = hyperhomocysteine group (>12.5 μmol/L)
[10] = normal homocysteine group (<12.5 μmol/L)

SMILES: Cc1ncc(CO)c(CO)c1O.Cl [Vitamin B6, vitamin B6]
- reduction of homocysteine levels [1]: no effect

SMILES: COc1ccc(-c2cc(=O)c3c(O)cc(O[C@@H]4O[C@H](CO[C@@H]5O[C@@H](C)[C@H](O)[C@@H](O)[C@H]5O)[C@@H](O)[C@H](O)[C@H]4O)cc3o2)cc1O [diosmin]
- CIVIQ change (score) ([2]; hyperhomocysteine group): −14.56 ± 15.86 score
- CIVIQ change (score) ([2]; normal homocysteine group): −12.09 ± 1.23 score
- CIVIQ (score), Visit 2 ([2]; hyperhomocysteine group): 79.71 ± 10.81 score
- CIVIQ (score), Visit 2 ([2]; normal homocysteine group): 78.44 ± 8.75 score
- CIVIQ (score), Visit 1 ([2]; hyperhomocysteine group): 65.14 ± 8.45 score
- CIVIQ (score), Visit 1 ([2]; normal homocysteine group): 66.09 ± 9.91 score
- homocysteine, Visit 2 (homocysteine level [3]; hyperhomocysteine group): 19.13 (18.75; 19.42) μmol/L
- homocysteine, Visit 2 (homocysteine level [3]; normal homocysteine group): 10.89 (10.21; 11.17) μmol/L
- homocysteine, Visit 1 (homocysteine level [3]; [9]): 20.73 (20.16; 21.21) μmol/L
- homocysteine, Visit 1 (homocysteine level [3]; [10]): 11.82 (11.59; 12.24) μmol/L
- homocysteine, Visit 2 (homocysteine level [4]; hyperhomocysteine group): 11.69 (11.52; 11.91) μmol/L
- homocysteine, Visit 2 (homocysteine level [4]; normal homocysteine group): 7.39 (7.65; 7.80) μmol/L
- homocysteine, Visit 1 (homocysteine level [4]; [9]): 14.74 (13.24; 15.79) μmol/L
- homocysteine, Visit 1 (homocysteine level [4]; [10]): 8.00 (7.23; 8.83) μmol/L
- change in ulcer size ([5]; hyperhomocysteine group): 2.61 (2.01; 3.29) cm^2
- change in ulcer size ([5]; normal homocysteine group): 1.11 (0.64; 2.26) cm^2
- ulcer size, Visit 2 ([5]; hyperhomocysteine group): 10.56 (10.28; 10.91) cm^2
- ulcer size, Visit 2 ([5]; normal homocysteine group): 7.09 (6.12; 7.67) cm^2
- ulcer size, Visit 1 ([5]; hyperhomocysteine group): 13.62 (12.44; 13.85) cm^2
- ulcer size, Visit 1 ([5]; normal homocysteine group): 8.11 (7.07; 8.73) cm^2

SMILES: CCOC(=O)[C@H](CCc1ccccc1)N[C@@H](C)C(=O)N1CCC[C@H]1C(=O)O [enalapril]
- Reduction in systolic blood pressure ([6]; baseline homocysteine 10-<15 versus reference category <10): −0.77 (−1.53; −0.01) mm Hg
- Reduction in systolic blood pressure ([6]; baseline homocysteine ≥15 versus reference category <10): −1.70 (−2.68; −0.72) mm Hg
- homocysteine levels increased by ([7]; baseline homocysteine <10 μmol/L): 1.7 µmol/L
- homocysteine levels increased by ([7]; baseline homocysteine between 10 and 15 μmol/L): 1.1 µmol/L
- homocysteine levels decreased by ([7]; baseline homocysteine ≥15 μmol/L, median 4.5 years, 10 mg enalapril, 0.8 mg folic acid daily): 2.4 µmol/L

SMILES: Nc1nc2ncc(CNc3ccc(C(=O)N[C@@H](CCC(=O)O)C(=O)O)cc3)nc2c(=O)[nH]1 [folic acid]
- ulcer healing ([8]; chronic venous ulcer disease with hyperhomocysteinemia): accelerated ulcer healing
- cure rate ([8]; group A: hyperhomocysteinemia, folic acid 1.2 mg/day for 12 months plus basic treatment, group B basic treatment only 63·33%, P<0.05): 78.75%
- reduction of homocysteine levels [1]: 11.5%
